Columns and labels:
[1] = system: CLP-induced kidney dysfunction; experiment: CLP sepsis model, serum urea and NGAL as kidney biomarkers; assay type: in vivo; conditions: CLP mice; SUL-138 5 mg/kg s.c. 2 h before and 8 h after surgery; 24 hours
Protocol: To induce sepsis, the standard cecal ligation and puncture (CLP) model was used. Animals were anesthetized by subcutaneous injection of xylazine/ketamine (100/10 mg/kg), followed by administration of buprenorphine (0.1 mg/kg) as analgesic. After confirmation of anesthesia by lack of response to paw pinch and eye reflex, the abdomen was shaved, cleaned, and de-germed using a povidone-iodine solution before a 1-cm midline incision was made. The cecum was ligated with a 6-0 suture at half the distance between distal pole and the base of the cecum and punctured once with a 21-Gauge needle (‘through-and-through’ from mesenteric toward anti-mesenteric direction) which is an accepted model for ‘mid-grade’ sepsis. A small amount of stool (2-3 mm) was then extruded to ensure wound patency. The cecum was repositioned, thereby taking care not to spill fecal material on the wound edges, followed by closure of the abdomen by running sutures to the abdominal musculature and short interrupted sutures to the skin. Next, 1 ml of saline (warmed, 0.9% NaCl s.c.) was administered to compensate for the expected relative volume depletion due to the onset of sepsis. […]
Furthermore, the amount of NGAL and urea were measured in serum.

[2] = system: IL-1β mRNA expression; experiment: Inhibition of LPS-induced IL-1β mRNA expression in HUVEC; assay type: cell-based, Human; conditions: 10 μM for 30 min, then LPS 24 hours
Protocol: (§1) Human Umbilical Cord Endothelial Cells (HUVEC, Lonza CC-2519) were maintained on 1% gelatin-coated culture flasks in RPMI1640 medium containing 20% fetal bovine serum, 2 mM Glutamine (Sigma-Aldrich), 1% Penicillin-Streptomycin solution (Sigma-Aldrich) and 50 μg/ml Bovine Pituitary Extract (Invitrogen). HUVEC were passaged by trypsinization when the cultures reach a confluency of 70%. For all experiments, HUVEC were seeded at 0.6·10^5 cells/cm^2 and allowed to adhere for 24 hours.
(§2) HUVEC and NRK52E cells were pre-incubated with SUL compounds (10 μM) for 30 min and subsequently exposed to LPS for 24 hours under standard culture conditions. Cells were lysed in triZOL reagens (Invitrogen) and total RNA isolated according to manufacturers' instruction. 1 μg total RNA per sample was reverse transcribed using the FirstAid Reverse Transcription Kit (ThermoFisher). Copy-DNA equivalents of 5 ng total RNA were amplified on a ViiA7 Real-time PCR system (ThermoFisher, Waltham, Mass.) using iTaq Universal SYBR Green Supermix (Bio-Rad, Hercules, Calif.) and primers specific for tumor necrosis factor alpha, interleukin 1 beta, interleukin-6 and beta actin as loading control. Amplification was performed for 40 cycles of 95° C. for 30 s, 60° C. for 1 min. Relative mRNA expression was calculated as 2^−(Cq^gene^−Cq^reference^) and normalized to unstimulated control cells (100% inhibition) and vehicle-treated and LPS exposed cells (0% inhibition). The following primers were used: […]

[3] = system: IL-1β mRNA expression; experiment: Inhibition of LPS-induced IL-1β mRNA expression in NRK52E; assay type: cell-based, Rat; conditions: 10 μM for 30 min, then LPS 24 hours
Protocol: Rat kidney epithelial cells (ATCC #CRL-1571) were maintained in DMEM medium containing 10% fetal bovine serum, and 1% Penicillin-Streptomycin solution (Sigma-Aldrich). NRK52E cells were passaged by trypsinization when the cultures reached a confluency of 70%. For all experiments, NRK52E cells were seeded at 0.6·10^5 cells/cm^2 and allowed to adhere for 24 hours.
as §2

[4] = system: mitochondrial oxidative stress in HUVEC; experiment: LPS-induced mitochondrial superoxide in HUVEC (MitoSox); assay type: cell-based, Human; conditions: 10 μM for 30 min, LPS 100 ng/ml 24 hours
Protocol: as §1
The production of cellular and mitochondrial oxidative stress was measured using fluorescent probes for cellular and mitochondrial superoxide, i.e. dihydroethidium (DHE) and MitoSox (ThermoFisher), respectively. HUVEC were incubated with BN-80933, SUL-138 or SUL-150 (all 10 μM) for 30 min. Next, HUVEC were exposed to LPS (100 ng/ml) for an additional 24 hours. In the final hour of incubation, 2.5 μM of DHE or MitoSox was applied to each sample. HUVEC were washed in PBS and fixed in 4% paraformaldehyde at room temperature for 15 min. Nuclear staining was performed by 5 μM […] (DAPI) and fluorescence intensity of the samples was recorded in a CLARIOStar Plus plate reader (BMG Labtech) equipped with the appropriate filter sets. Fluorescence recordings for DHE and MitoSox were corrected for DAPI fluorescence. All experiments were performed in quadruplicate.

[5] = system: IL-6 mRNA expression; experiment: Endothelial inflammatory activation after endotoxin, IL-6 mRNA (Example 5); assay type: cell-based, Human; conditions: HUVEC; 10 μM for 30 min
Protocol: as §1
HUVEC cells were lysed in triZOL reagens (Invitrogen) and total RNA isolated according to manufacturers' instruction. 1 μg total RNA per sample was reverse transcribed using the FirstAid Reverse Transcription Kit (ThermoFisher). Copy-DNA equivalents of 5 ng total RNA were amplified on a ViiA7 Real-time PCR system (ThermoFisher, Waltham, Mass.) using iTaq Universal SYBR Green Supermix (Bio-Rad, Hercules, Calif.) and primers specific for tumor necrosis factor alpha (TNFα; sense 5′-[…]-3′, antisense 5′-[…]-3′), interleukin 1 beta (IL-1β; sense 5′-[…]-3′, antisense 5′-[…]-3′), interleukin-6 (IL-6; sense 5′-[…]-3′, antisense 5′-[…]-3′) and beta actin (ACTB; sense 5′-[…]-3′, antisense 5′-[…]-3′) as loading control. Amplification was performed for 40 cycles of 95° C. for 30 s, 60° C. for 1 min. Relative mRNA expression was calculated according to the δδCt-method.

SMILES: Cc1c(C)c2c(c(C)c1O)CC[C@@](C)(C(=O)N1CCN(CCO)CC1)O2 [SUL-138, (S)-(6-hydroxy-2,5,7,8-tetramethylchroman-2-yl)(4-(2-hydroxyethyl)piperazin-1-yl)methanone]
- Serum NGAL level [1]: not different from Sham operated animals
- Serum urea level [1]: not different from Sham operated animals
- inhibition of LPS-induced mRNA expression of IL-1β [2]: 76.3 ± 7.9 %
- inhibition of LPS-induced mRNA expression of IL-1β [3]: 65.2 ± 8.9 %
- LPS-induced mitochondrial oxidative stress (MitoSox) [4]: precluded the LPS-induced increase in mitochondrial oxidative stress
- LPS-induced mRNA expression of IL-6 [5]: precluded the LPS-induced increase in IL-1β and IL-6

From US20230202997A1, “CHROMANOL, QUINONE OR HYDROQUINONE COMPOUNDS FOR TREATMENT OF SEPSIS” (Sulfateq B.V., priority 2020, published 2023)
